The values that follow come from patent US6753310B1, “Neovascular-specific peptides” (Otsuka Pharmaceutical Co., Ltd., priority 1998, dated 2004).

In one data set the test system is Meth A sarcoma. Description: Antitumor effect of adriamycin-including peptide-modified liposomes, tail vein administration. The format is in vivo, BALB/c mice. Particulars: FIG. 15; after three tail vein administrations on days 6, 9 and 12. Here is the method:
Solid tumor-bearing mice were prepared by subcutaneously administering Meth A sarcoma cells (1×10^6 cells/mouse) into the left flank of five-week-old BALB/c male mice (Japan SLC). The day of implantation was taken as day 1 and, on days 6, 9 and 12, the 0.3 M glucose solution (solvent) as a control, adriamycin (ADR)-including control liposomes (liposomes including the anticancer agent but free of any angiogenesis-specific peptide of the invention), a free ADR solution prepared by dissolving the anticancer agent ADR in a concentration of 15 mg/kg (mouse) in 0.3 M glucose, and the ADR-including, angiogenesis-specific peptide-modified liposomes of the invention as prepared above in (1) were respectively administered into the tail vein. In the test, 5 tumor-bearing mice were used in each group.
The antitumor effect of each agent administered was evaluated by examining, from 5 days after tumor implantation, the tumor volume as an indicator of tumor growth and the mouse body weight change as well as the survival period (days) as an indicator of side effect, in a similar manner as in Example 4 (2).
In the figure, the ordinate denotes the tumor volume and the ascissa denotes the number of days after tumor implantation. […]

Data set [1] concerns B16BL6 melanoma tumor tissue. Description: Competitive inhibition experiment using the respective phages and synthetic 8-residue or 5-residue peptides. The settings on record: FIG. 1. In kind it is in vivo, C57BL/6 mice. As for the experimental part:
Thus, 10 days after implantation of B16BL6 melanoma (1×10^6 cells) into five-week-old C57BL/6 mice (obtained from Japan SLC), a mixed solution (0.2 ml) of 0.25 μmol of one of the above synthetic peptides and the respective phage (1×10^8 colony forming units) was administered into the tail vein of each tumor-bearing mouse under anesthesia, and the colony forming units of the phage accumulated in the tumor tissue were counted in a similar manner as mentioned above.
Using a similar method as described above under (2) and using the four short-chain peptides (SEQ ID NO:13 to 16) obtained as mentioned above under (2) in lieu of the synthetic peptides (SEQ ID NO:5 and 6), the synthetic peptides and the respective phages were administered and colony forming units for the phages accumulated in the tumor tissue were counted, and the short-chain synthetic peptides were evaluated for their inhibitory effect on phage accumulation. In a control group,synthetic peptide-free phage solutions (1×10^8 colony forming units) were administered.
In each figure, the ordinate denotes the phase accumulation percentage (%) and the abscissa denotes the phage number. In FIG. 1, the open bar is for the group (control group) given the phage alone without administration of any synthetic peptide, the shaded bar is for the group given the short-chain synthetic peptide shown in SEQ ID NO:13 and the closed bar is for the group given the short-chain synthetic peptide shown in SEQ ID NO:14.
In FIG. 2, the open bar is for the group (control group) given the phage alone without administration of any synthetic peptide, the closed bar is for the group given the short-chain peptide shown in SEQ ID NO:15 (where phage No. 5 was used) and the shaded bar is for the group given the short-chain peptide shown in SEQ ID NO:16 (where phage No. 6 was used).

Turning to `COc1cccc2c1C(=O)c1c(O)c3c(c(O)c1C2=O)C[C@@](O)(C(=O)CO)C[C@@H]3O[C@H]1C[C@H](N)[C@H](O)[C@H](C)O1` [free ADR solution, adriamycin], the death of mice entry in the data set with Meth A sarcoma is “all mice died”.
For “SEQ ID NO: 14: 8-Residue peptide comprising positions 8 to 15 of SEQ ID NO: 6 (IHWRPWAR; phage library)”, in data set [1], the “cross reactivity between phages” value is reported as “showed cross reactivity” and the “inhibitory activity compared with the 15-residue synthetic peptides” value was “higher in inhibitory activity than the 15-resiude synthetic peptides”. In addition, in data set [1] (phages expressing the corresponding 15-residue peptides (Nos. 5 and 6)), the “inhibition of phage accumulation by 8-residue synthetic peptides” value is “inhibited the accumulation of the phages”.
